Experimental findings from patent US10118921B2, “Diarylmethylidene piperidine derivatives and their use as delta opoid receptor agnists” (PHARMNOVO AB, priority 2014, dated 2018) are described below.

Holding throughout (type): cell-based
The target in test [1] is T1, δ-opioid receptor (DOR) (Homo sapiens, UniProt P41143). Put plainly: cAMP measurement in δ-opioid-expressing CHO cells (DiscoveRx cAMP Hunter). From the text: (§1) δ-opioid receptors (DOR) are coupled to inhibitory G proteins (Gi/o) which inhibit adenylyl cyclase activity, open K^+ channels and block Ca^2+ channels. They can also couple, in an agonist-dependent manner to β-arrestin 2, which lead to desensitization, and to MAP kinase (ERK) phosphorylation.
T1 sequence (P41143 whole entry): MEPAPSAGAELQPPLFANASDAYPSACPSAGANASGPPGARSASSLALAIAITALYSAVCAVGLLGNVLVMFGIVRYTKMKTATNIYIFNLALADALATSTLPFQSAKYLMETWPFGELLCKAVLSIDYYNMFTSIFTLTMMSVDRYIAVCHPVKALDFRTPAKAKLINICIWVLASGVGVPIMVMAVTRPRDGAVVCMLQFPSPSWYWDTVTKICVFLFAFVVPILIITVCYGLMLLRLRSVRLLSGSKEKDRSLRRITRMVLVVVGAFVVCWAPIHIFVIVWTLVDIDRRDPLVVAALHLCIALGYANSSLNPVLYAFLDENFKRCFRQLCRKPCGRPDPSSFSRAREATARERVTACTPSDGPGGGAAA
(§2) In Vitro Assessment of δ-Opioid Agonist Potency: […]
(§3) cAMP measurements will be made in δ-opioid-expressing CHO cells exposed to increasing agonist concentrations using DiscoveRx cAMP Hunter™ assay kits. β-arrestin recruitment will be measured in the presence of increasing agonist concentrations using DiscoveRx Pathunter® kits. Selectivity of mu- and kappa-opioid receptors will be performed using Cerep cAMP evaluation from ref. 1392 and 2071 (Cerep Le Bois l'Evéque, 86600 Celle l'Evescault, France).

Test [2] has as its target T1, δ-opioid receptor (DOR). Put plainly: β-arrestin recruitment (DiscoveRx Pathunter).
Description: as §1, §2, §3

The target of a further test is mu-opioid receptor (Homo sapiens, UniProt P35372). Put plainly: Selectivity versus mu-opioid receptor, Cerep cAMP evaluation. As to conditions: ratio mu/delta.
Sequence of mu-opioid receptor (P35372 whole entry): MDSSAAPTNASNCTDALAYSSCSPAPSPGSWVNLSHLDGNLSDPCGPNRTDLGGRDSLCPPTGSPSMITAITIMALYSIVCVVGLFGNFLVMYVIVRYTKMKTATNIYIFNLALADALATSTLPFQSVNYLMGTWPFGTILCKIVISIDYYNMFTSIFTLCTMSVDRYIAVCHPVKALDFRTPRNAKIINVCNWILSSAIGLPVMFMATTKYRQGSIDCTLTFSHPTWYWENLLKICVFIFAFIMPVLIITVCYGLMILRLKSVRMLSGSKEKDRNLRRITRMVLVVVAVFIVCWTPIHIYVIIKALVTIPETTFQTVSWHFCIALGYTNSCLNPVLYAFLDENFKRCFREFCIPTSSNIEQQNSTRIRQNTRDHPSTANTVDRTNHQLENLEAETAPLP
Description: as §3

A further test has as its target kappa-opioid receptor (Rattus norvegicus, UniProt P34975). Put plainly: Selectivity versus kappa-opioid receptor, Cerep cAMP evaluation. The note with it: ratio kappa/delta.
Description: as §3

[3] abbreviates: δ-opioid-expressing CHO cells, agonist potency, read-out: EC-50 cAMP.
The mark [4] stands for this setting: β-arrestin recruitment, agonist potency, read-out: EC-50 beta-arrestin.

Sequence of kappa-opioid receptor (P34975 whole entry): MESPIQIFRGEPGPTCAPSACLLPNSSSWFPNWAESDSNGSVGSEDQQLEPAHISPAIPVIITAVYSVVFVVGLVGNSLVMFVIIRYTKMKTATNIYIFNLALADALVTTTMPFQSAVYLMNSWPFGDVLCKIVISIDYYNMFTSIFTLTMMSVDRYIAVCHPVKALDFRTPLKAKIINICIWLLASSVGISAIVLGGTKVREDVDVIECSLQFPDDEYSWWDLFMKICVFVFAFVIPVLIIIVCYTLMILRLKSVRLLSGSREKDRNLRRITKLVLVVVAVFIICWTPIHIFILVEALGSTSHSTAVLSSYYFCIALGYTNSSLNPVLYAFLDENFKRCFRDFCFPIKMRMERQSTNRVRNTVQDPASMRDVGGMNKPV

Take `CN(C)C(=O)c1ccc(C(=C2CCN(Cc3ccc(C(F)(F)F)nc3)CC2)c2cccc(C(N)=O)c2)cc1` [Example 1a, 4-[(3-Carbamoylphenyl)(1-{[6-(trifluoromethyl)pyridin-3-yl]methyl}piperidin-4-ylidene)methyl]-N,N-dimethylbenzamide]: the figures for the EC50 on δ-opioid receptor (DOR) [1] (setting [3]) and on δ-opioid receptor (DOR) [2] (setting [4]) were 2.8 nM and 28 nM, respectively. The “Selectivity (mu/delta)” value on mu-opioid receptor is 360. Moreover, the “Selectivity (kappa/delta)” value at kappa-opioid receptor was 360.

With `CN(C)C(=O)c1ccc(C(=C2CCN(Cc3cncs3)CC2)c2cccc(C(N)=O)c2)cc1` [Example 1b, 4-[(3-Carbamoylphenyl)[1-(1,3-thiazol-5-ylmethyl)piperidin-4-ylidene]methyl]-N,N-dimethylbenzamide], the EC50 at δ-opioid receptor (DOR) [1] came out at 0.5 nM; on δ-opioid receptor (DOR) [2] it was 4 nM. Further, the “Selectivity (mu/delta)” value on mu-opioid receptor was 100000. Further, the “Selectivity (kappa/delta)” value on kappa-opioid receptor is on record as 1000.

On to `Cc1nc[nH]c1CN1CCC(=C(c2ccc(C(=O)N(C)C)cc2)c2cccc(C(N)=O)c2)CC1` [Example 1c, 4-[(3-Carbamoylphenyl)({1-[(4-methyl-1H-imidazol-5-yl)methyl]piperidin-4-ylidene})methyl]-N,N-dimethylbenzamide], for which the EC50 on δ-opioid receptor (DOR) [1] (setting [3]) was found to be 0.5 nM; at δ-opioid receptor (DOR) [2] (setting [4]), 3 nM. At mu-opioid receptor, the “Selectivity (mu/delta)” value was 1000. Also, the “Selectivity (kappa/delta)” value at kappa-opioid receptor worked out at 1000.
